Experiment: in-vitro release of risperidone from the in-situ hydrogel into PBS
Format: physicochemical
Conditions: agarose/urea in-situ hydrogel, Millicell insert in 7.5 ml PBS, HPLC, on the 28 day
Description: 800 μl of the stock solution was mixed with 200 μl of DI water containing dispersed risperidone (20 mg/ml). Then, 150 μl of the solution was added into 12-well Millicells and immersed the insert into 7.5 ml of PBS. The PBS solution was taken out at designated time point and replaced with fresh PBS. The concentration of risperidone was measured via HPLC. The release profile of risperidone from the in-situ hydrogel reached 86% on the 28 day (FIG. 2).

## Cc1nc2n(c(=O)c1CCN1CCC(c3noc4cc(F)ccc34)CC1)CCCC2 [risperidone]
  release of risperidone from the in-situ hydrogel: 86%

Source: patent US9757330B2, “Recipe for in-situ gel, and implant, drug delivery system formed thereby” (INDUSTRIAL TECHNOLOGY RESEARCH INSTITUTE, priority 2013, dated 2017)
